Reference: patent US20100292255A1, “Therapeutic Compounds and Their Use in Treating Diseases and Disorders” (Myriad Pharmaceuticals, Inc., priority 2007, published 2010)

Test system: T1, purified human Hsp90
T1 construct: purified human Hsp90 (Stressgen, SPP-770)
Test: Hsp90 binding assay: displacement of BODIPY-labeled geldanamycin measured by fluorescence polarization
Details: 5 μM compound; BODIPY-GM 10 nM, Hsp90 30 nM, overnight at room temperature
Procedure: Binding of the Example Compounds to purified Hsp90 was assayed by measuring the displacement of BODIPY-labeled geldanamycin (BODIPY-GM) from purified human Hsp90, using a fluorescence polarization assay adapted from Kim et al. (J. Biomolec. Screening, 9(5):375-381 (2004)). Compound dilutions (in 100% DMSO) were added to black-bottom 96-well plates (Greiner Bio-One, Monroe, N.C.) in 2% DMSO final, and equal volumes of BODIPY-GM (10 nM final) and purified human Hsp90 (Stressgen, SPP-770; 30 nM final) (Assay Designs, Ann Arbor, Mich.) in assay buffer (20 mM HEPES-KOH pH 7.3, 50 mM KCl, 5 mM MgCl2, 20 mM Na2MoO4, 0.01% NP-40, 0.1 mg/mL bovine gamma globulin [P2045; Invitrogen, Carlsbad, Calif.], 2 mM DTT) were added sequentially to yield a final volume of 50 microliters. Plates were incubated overnight at room temperature. Parallel and perpendicular fluorescence measurements were read (Analyst AD plate reader; LJL BioSystems, Middletown, Conn.) with excitation/emission wavelengths of 485/530 nm. Background fluorescence (buffer only) was subtracted, and fluorescence polarization (FP) values, expressed in mP units, were calculated from parallel and perpendicular fluorescence readings as follows:
FP=(parallel−perpendicular)/(parallel+perpendicular)*1000.
Percent inhibition was calculated by normalizing the FP values to those obtained in parallel reactions containing DMSO and subtracting these normalized values from 100%. Intrinsic compound fluorescence was independently monitored, and FP data points confounded by compound fluorescence were excluded from the analysis.

| GM displacement from purified Hsp90 measured by FP Inhibition by 5 μM compd. (%) | SMILES |
| --- | --- |
| 87.0% | Nc1ncn(CCC2CCN(C=O)CC2)c2nc(Sc3cc(O)c(O)cc3Br)nc1-2 [Example Compound 146, 4-(2-{6-amino-8-[(2-bromo-4,5-dihydroxyphenyl)thio]-3H-purin-3-yl}ethyl)piperidine-1-carbaldehyde] |
| 75.0% | Cc1cc(Br)c(Sc2nc3c(N)ncn(CCC4CCN(C(=O)[C@H](C)O)CC4)c-3n2)cc1C [Example Compound 166, (2S)-1-[4-(2-{6-amino-8-[(2-bromo-4,5-dimethylphenyl)thio]-3H-purin-3-yl}ethyl)piperidin-1-yl]-1-oxopropan-2-ol] |

Same assay, conditions: BODIPY-GM 10 nM, Hsp90 30 nM, overnight at room temperature; read-out: GM displacement from purified Hsp90 measured by FP IC 50

| IC50 | SMILES |
| --- | --- |
| 600 nM | Nc1ncnc2c1nc(Sc1cc(O)c(O)cc1Br)n2CCC1CCN(C=O)CC1 [Example Compound 145, 4-(2-{6-Amino-8-[(2-bromo-4,5-dihydroxyphenyl)thio]-9H-purin-9-yl}ethyl)piperidine-1-carbaldehyde] |
| 470 nM | Nc1ncnc2c1nc(Sc1cc3c(cc1Br)OCO3)n2CCC1CCNCC1 [Example Compound 147, 8-[(6-Bromo-1,3-benzodioxol-5-yl)thio]-9-(2-piperidin-4-ylethyl)-9H-purin-6-amine] |
| 400 nM | Nc1ncnc2c1nc(Sc1cc3c(cc1Br)OCO3)n2CCC1CCN(S(N)(=O)=O)CC1 [Example Compound 148, 4-(2-{6-Amino-8-[(6-bromo-1,3-benzodioxol-5-yl)thio]-9H-purin-9-yl}ethyl)piperidine-1-sulfonamide] |
| 600 nM | Nc1ncnc2c1nc(Sc1cc3c(cc1Br)OCO3)n2CCC1CCN(CCCO)CC1 [Example Compound 150, 3-[4-(2-{6-Amino-8-[(6-bromo-1,3-benzodioxol-5-yl)thio]-9H-purin-9-yl}ethyl)piperidin-1-yl]propan-1-ol] |
| 57 nM | NC(=O)C[C@H](N)C(=O)N1CCC(CCn2c(Sc3cc4c(cc3Br)OCCO4)nc3c(N)ncnc32)CC1 [Example Compound 151, (3S)-3-Amino-4-[4-(2-{6-amino-8-[(7-bromo-2,3-dihydro-1,4-benzodioxin-6-yl)thio]-9H-purin-9-yl}ethyl)piperidin-1-yl]-4-oxobutanamide] |
| 114 nM | NC(=O)C[C@H](N)C(=O)N1CCC(CCn2c(Sc3cc4c(cc3Br)OCO4)nc3c(N)ncnc32)CC1 [Example Compound 152, (3S)-3-Amino-4-[4-(2-{6-amino-8-[(6-bromo-1,3-benzodioxol-5-yl)thio]-9H-purin-9-yl}ethyl)piperidin-1-yl]-4-oxobutanamide] |
| 175 nM | NC(=O)CCC(=O)N1CCC(CCn2c(Sc3cc4c(cc3Br)OCCO4)nc3c(N)ncnc32)CC1 [Example Compound 153, 4-[4-(2-{6-Amino-8-[(7-bromo-2,3-dihydro-1,4-benzodioxin-6-yl)thio]-9H-purin-9-yl}ethyl)piperidin-1-yl]-4-oxobutanamide] |
| 105 nM | Nc1ncnc2c1nc(Sc1cc3c(cc1Br)OCCO3)n2CCC1CCN(C2=NC(=O)CC2)CC1 [Example Compound 154, 5-[4-(2-{6-amino-8-[(7-bromo-2,3-dihydro-1,4-benzodioxin-6-yl)thio]-9H-purin-9-yl}ethyl)piperidin-1-yl]-3,4-dihydro-2H-pyrrol-2-one] |
| 300 nM | NC(=O)CCC(=O)N1CCC(CCn2c(Sc3cc4c(cc3Br)OCO4)nc3c(N)ncnc32)CC1 [Example Compound 155, 4-[4-(2-{6-Amino-8-[(6-bromo-1,3-benzodioxol-5-yl)thio]-9H-purin-9-yl}ethyl)piperidin-1-yl]-4-oxobutanamide] |
| 160 nM | Nc1ncnc2c1nc(Sc1cc3c(cc1Br)OCO3)n2CCC1CCN(C2=NC(=O)CC2)CC1 [Example Compound 156, 5-[4-(2-{6-amino-8-[(6-bromo-1,3-benzodioxol-5-yl)thio]-9H-purin-9-yl}ethyl)piperidin-1-yl]-3,4-dihydro-2H-pyrrol-2-one] |
| 195 nM | CS(=O)(=O)NCC(=O)N1CCC(CCn2c(Sc3cc4c(cc3Br)OCCO4)nc3c(N)ncnc32)CC1 [Example Compound 157, N-{2-[4-(2-{6-Amino-8-[(7-bromo-2,3-dihydro-1,4-benzodioxin-6-yl)thio]-9H-purin-9-yl}ethyl)piperidin-1-yl]-2-oxoethyl}methanesulfonamide] |
| 360 nM | CS(=O)(=O)NCC(=O)N1CCC(CCn2c(Sc3cc4c(cc3Br)OCO4)nc3c(N)ncnc32)CC1 [Example Compound 158, N-{2-[4-(2-{6-Amino-8-[(6-bromo-1,3-benzodioxol-5-yl)thio]-9H-purin-9-yl}ethyl)piperidin-1-yl]-2-oxoethyl}methanesulfonamide] |
| 150 nM | CC(=O)NCC(=O)N1CCC(CCn2c(Sc3cc4c(cc3Br)OCCO4)nc3c(N)ncnc32)CC1 [Example Compound 159, N-{2-[4-(2-{6-Amino-8-[(7-bromo-2,3-dihydro-1,4-benzodioxin-6-yl)thio]-9H-purin-9-yl}ethyl)piperidin-1-yl]-2-oxoethyl}acetamide] |
| 200 nM | CC(=O)N[C@@H](C)C(=O)N1CCC(CCn2c(Sc3cc4c(cc3Br)OCCO4)nc3c(N)ncnc32)CC1 [Example Compound 160, N-{(1S)-2-[4-(2-{6-Amino-8-[(7-bromo-2,3-dihydro-1,4-benzodioxin-6-yl)thio]-9H-purin-9-yl}ethyl)piperidin-1-yl]-1-methyl-2-oxoethyl}acetamide] |
| 140 nM | CC(=O)N[C@H](C)C(=O)N1CCC(CCn2c(Sc3cc4c(cc3Br)OCCO4)nc3c(N)ncnc32)CC1 [Example Compound 161, N-{(1R)-2-[4-(2-{6-Amino-8-[(7-bromo-2,3-dihydro-1,4-benzodioxin-6-yl)thio]-9H-purin-9-yl}ethyl)piperidin-1-yl]-1-methyl-2-oxoethyl}acetamide] |
| 60 nM | Nc1ncnc2c1nc(Sc1cc3c(cc1Br)OCCO3)n2CCC1CCN(C(=O)CS)CC1 [Example Compound 162, 2-[4-(2-{6-Amino-8-[(7-bromo-2,3-dihydro-1,4-benzodioxin-6-yl)thio]-9H-purin-9-yl}ethyl)piperidin-1-yl]-2-oxoethanethiol] |
| 205 nM | C[C@H](O)C(=O)N1CCC(CCn2c(Sc3cc4c(cc3Br)CCCC4)nc3c(N)ncnc32)CC1 [Example Compound 163, (2S)-1-[4-(2-{6-amino-8-[(3-bromo-5,6,7,8-tetrahydronaphthalen-2-yl)thio]-9H-purin-9-yl}ethyl)piperidin-1-yl]-1-oxopropan-2-ol] |
| 240 nM | Cc1cc(Br)c(Sc2nc3c(N)ncnc3n2CCC2CCN(C(=O)[C@H](C)O)CC2)cc1C [Example Compound 165, (2S)-1-[4-(2-{6-amino-8-[(2-bromo-4,5-dimethylphenyl)thio]-9H-purin-9-yl}ethyl)piperidin-1-yl]-1-oxopropan-2-ol] |
| 42 nM | Nc1ncnc2c1nc(Sc1cc3c(cc1Br)CCO3)n2CCC1CCN(C=O)CC1 [Example Compound 167, 4-(2-{6-Amino-8-[(5-bromo-2,3-dihydro-1-benzofuran-6-yl)thio]-9H-purin-9-yl}ethyl)piperidine-1-carbaldehyde] |
| 95 nM | Nc1ncnc2c1nc(Sc1cc3occc3cc1Br)n2CCC1CCN(C=O)CC1 [Example Compound 168, 4-(2-{6-Amino-8-[(5-bromo-1-benzofuran-6-yl)thio]-9H-purin-9-yl}ethyl)piperidine-1-carbaldehyde] |
| 1900 nM | CC(C)(C)OC(=O)N1CCC(CCn2c(Sc3cc4c(cc3C=O)OCO4)nc3c(N)ncnc32)CC1 [Example Compound 169, tert-Butyl 4-(2-{6-amino-8-[(6-formyl-1,3-benzodioxol-5-yl)thio]-9H-purin-9-yl}ethyl)piperidine-1-carboxylate] |
| 41 nM | COC(=O)c1cc2c(cc1Sc1nc3c(N)ncnc3n1CCC1CCN(C=O)CC1)OCO2 [Example Compound 170, Methyl 6-({6-amino-9-[2-(1-formylpiperidin-4-yl)ethyl]-9H-purin-8-yl}thio)-1,3-benzodioxole-5-carboxylate] |
| 68 nM | CCOC(=O)c1cc2c(cc1Sc1nc3c(N)ncnc3n1CCC1CCN(C=O)CC1)OCO2 [Example Compound 171, ethyl 6-({6-amino-9-[2-(1-formylpiperidin-4-yl)ethyl]-9H-purin-8-yl}thio)-1,3-benzodioxole-5-carboxylate] |
| 300 nM | CC(C)(C)OC(=O)N1CCC(CCn2c(Sc3cc4c(cc3Br)CCO4)nc3c(N)ncnc32)CC1 [Example Compound 172, tert-Butyl 4-(2-{6-amino-8-[(5-bromo-2,3-dihydro-1-benzofuran-6-yl)thio]-9H-purin-9-yl}ethyl)piperidine-1-carboxylate] |

| SMILES | IC50 |
| --- | --- |
| Nc1ncnc2c1nc(Sc1cc3c(cc1Br)OCO3)n2CCC1CCN(CCO)CC1 [Example Compound 149, 2-[4-(2-{6-Amino-8-[(6-bromo-1,3-benzodioxol-5-yl)thio]-9H-purin-9-yl}ethyl)piperidin-1-yl]ethanol] | 450 nM |
